Measurements as given in patent US7173040B2, “Farnesyl transferase inhibiting 6-[(substituted phenyl)methyl]-quinoline and quinazoline derinazoline derivatives” (Janssen Pharmaceutica N.V., priority 2000, dated 2007).

SMILES	melting point
CSc1nnc(C(O)(c2ccc(Cl)cc2)c2ccc3c(c2)c(-c2cccc(Cl)c2)nc2nnnn23)n1C (stereo not drawn) [Example B28b, 5-(3-chlorophenyl)-α-(4-chlorophenyl)-α-[4-methyl-5-(methylthio)-4H-1,2,4-triazol-3-yl]-tetrazolo[1,5-a]quinazoline-7-methanol]	65 °C
Cn1cnnc1C(N)(c1ccc(C#N)cc1)c1ccc2c(c1)c(-c1cccc(Cl)c1)nc1nnnn12 (stereo not shown) [Example B29d, 4-[amino[5-(3-chlorophenyl)tetrazolo[1,5-a]quinazolin-7-yl](4-methyl-4H-1,2,4-triazol-3-yl)methyl]-benzonitrile]	194 °C
CSc1nnc(C(N)(c2ccc(Cl)cc2)c2ccc3c(c2)c(-c2cccc(Cl)c2)nc2nnnn23)n1C (stereo not drawn) [Example B28d, 5-(3-chlorophenyl)-α-(4-chlorophenyl)-α-[4-methyl-5-(methylthio)-4H-1,2,4-triazol-3-yl]-tetrazolo[1,5-a]quinazoline-7-methanamine]	150 °C
Cl.Cn1cncc1C(O)(c1ccc(C(=O)O)cc1)c1ccc2[nH]c(=O)cc(-c3cccc(Cl)c3)c2c1.O (racemic) (hydrate or solvate)	> 300 °C
Cn1cncc1C(O)(c1ccc(C#N)cc1)c1ccc2c(c1)c(-c1cccc(Cl)c1)cc(=O)n2C (racemic) [Example B41b, (±)-4-[[4-(3-chlorophenyl)-1,2-dihydro-1-methyl-2-oxo-6-quinolinyl]hydroxy(1-methyl-1H-imidazol-5yl)methyl]benzonitrile]	210 °C
Cn1cnnc1C(N)(c1ccc(I)cc1)c1ccc2c(c1)c(-c1cccc(Cl)c1)nc1nnnn12 (stereo not drawn) [Example B29c, 5-(3-chlorophenyl)-α-(4-iodophenyl)-α-(4-methyl-4H-1,2,4-triazol-3-yl)-tetrazolo[1,5-a]quinazoline-7-methanamine]	238 °C
Cn1cncc1C(O)(c1ccc(C=O)cc1)c1ccc2c(c1)c(-c1cccc(Cl)c1)nc1nnnn12 (stereo not shown) [Example B38, 4-[[5-(3-chlorophenyl)tetrazolo[1,5-a]quinazolin-7-yl]hydroxy(1-methyl-1H-imidazol-5-yl)methyl]-benzaldehyde]	170 °C
Cn1c(=O)cc(-c2cccc(Cl)c2)c2cc(C(N)(c3ccc(Cl)cc3)c3cnccc3Cl)ccc21 (stereo not shown) [Example B40b, 6-[amino(4-chlorophenyl)(4-chloro-3-pyridinyl)methyl]-4(3-chlorophenyl)-1-methyl-2(1H)-quinolinone]	180 °C
Cn1cnnc1C(N)(c1ccc(Cl)cc1)c1ccc2c(c1)c(-c1cccc(Cl)c1)nc1nnnn12 (stereo not drawn) [Example B28e, 5-(3-chlorophenyl)-α-(4-chlorophenyl)-α-(4-methyl-4H-1,2,4-triazol-3-yl)-tetrazolo[1,5-a]quinazoline-7-methanamine]	220 °C
Cn1cncc1C(N)(c1ccc([N+](=O)[O-])cc1)c1ccc2c(c1)c(-c1cccc(Cl)c1)cc(=O)n2C (racemic) [Example B8b, (±)-6-[amino(1-methyl-1H-imidazol-5-yl)(4-nitrophenyl)methyl]-4-(3-chlorophenyl)-1-methyl-2(1H)-quinolinone]	258 °C
Cn1cncc1C(O)(c1ccc(C=O)cc1)c1ccc2c(c1)c(-c1cccc(Cl)c1)cc(=O)n2C (racemic) [Example B6, (±)-4-[[4-(3-chlorophenyl)-1,2-dihydro-1-methyl-2-oxo-6-quinolinyl]hydroxy(1-methyl-1H-imidazol-5-yl)methyl]benzaldehyde]	208 °C
CCOC(=O)c1cn2c(cc(-c3cccc(Cl)c3)c3cc(C(c4ccc(Cl)cc4)c4nncn4C)ccc32)n1 (stereo not shown) [Example B35, ethyl 5-(3-chlorophenyl)-7-[(4-chlorophenyl)(4-methyl-4H-1,2,4-triazol-3-yl)methyl]-imidazo[1,2-a]quinoline-2-carboxylate]	220 °C
Cn1cnnc1C(c1ccc(Cl)cc1)c1ccc2c(c1)c(-c1cccc(Cl)c1)cc(=O)n2C (stereo not shown) [Example B7, 4-(3-chlorophenyl)-6-[(4-chlorophenyl)(4-methyl-4H-1,2,4-triazol-3-yl)methyl]-1-methyl-2(1H)-quinolinone]	153 °C
